Patent US20170224662A1 (priority 2016, published 2017)
≈ marks a conversion by molar mass, not a printed value. Like-named read-outs stand apart in the source and are kept apart here. Marks after values point to notes of the source that are not given here.

Assays:
[1] = Binary excipient screening: stability of CPMM 1 mg/mL in IV-compatible excipient solutions in 10 mM pH 3 phosphate buffer; format: physicochemical; details: for CPMM % Purity: t = 0
Description: CPMM was evaluated for compatibility with excipients that are suitable for IV administration. A buffer solution (phosphate at pH 3) was selected as the diluent for excipient screening studies. […] CPMM was solubilized in each excipient solution at 1 mg/mL.
While CPMM completely dissolved in the control sample within several minutes, many of the excipient solutions required overnight storage at 5° C. to solubilize the drug.
Each excipient sample solution was placed on a two-week stability study at 25° C./60% relative humidity and 40° C./75% relative humidity, and analyzed for CPMM purity at t=0, 1, and 2 weeks by comparing individual samples to their respective excipient blank solution.

physchem = format: physicochemical; details: thermodynamic from solid
Description: A study was conducted to evaluate whether buffer concentration affects the maximum solubility of CPMM. […] The solutions were prepared and CPMM was added until saturation was achieved. The pH was controlled by continually titrating the solutions to pH 6 using NaOH. Saturation was determined to have been achieved after the pH had stabilized and undissolved remained in the vial after overnight shaking. Solubility was evaluated by taking two separate samplings over the course of two days to verify that saturation had been achieved. Solubility was measured when the formulations were at room temperature, as well as tested when the formulations were under sub-ambient conditions (2-8° C.) to evaluate whether the solubility would be affected at lower temperatures for long term storage at (2-8° C.).

**Q.** With `COC(=O)C1(OC(=O)c2cncn2[C@H](C)c2ccccc2)CC1` [CPMM, 1-(methoxycarbonyl)cyclopropyl-1-[(1R)-1-phenylethyl]-1H-imidazole-5-carboxylate] as the compound, how does the “Change in CPMM % Purity” value ([1]; PEG 400 10% in pH 3 buffer, 1 week 40° C./75% RH) read?
**A.** −4.0%

**Q.** And the “Change in CPMM % Purity” value ([1]; PEG 400 10% in pH 3 buffer, 2 weeks 25° C./60% RH)?
**A.** −2.0%

**Q.** What about the “Change in CPMM % Purity” value ([1]; PEG 400 10% in pH 3 buffer, 2 weeks 40° C./75% RH) of the same compound?
**A.** −7.0%

**Q.** What about the “CPMM % Purity” value ([1]; PEG 400 10% in pH 3 buffer) of the same compound?
**A.** 99.5%

**Q.** What about the “CPMM % Purity” value ([1]; PVP K17 5% in pH 3 buffer, excipient peak co-elutes with several related substances, not accounted for) of the same compound?
**A.** 99.6%*

**Q.** What about the “Change in CPMM % Purity” value ([1]; Polysorbate 20 1% in pH 3 buffer, 1 week 25° C./60% RH) of the same compound?
**A.** −1.4%

**Q.** And the “Change in CPMM % Purity” value ([1]; Polysorbate 20 1% in pH 3 buffer, 1 week 40° C./75% RH)?
**A.** −4.6%

**Q.** And the “Change in CPMM % Purity” value ([1]; Polysorbate 20 1% in pH 3 buffer, 2 weeks 25° C./60% RH)?
**A.** −2.1%

**Q.** And the “Change in CPMM % Purity” value ([1]; Polysorbate 20 1% in pH 3 buffer, 2 weeks 40° C./75% RH)?
**A.** −8.1%

**Q.** What about the “CPMM % Purity” value ([1]; Polysorbate 20 1% in pH 3 buffer) of the same compound?
**A.** 99.4%

**Q.** What about the “Change in CPMM % Purity” value ([1]; Polysorbate 80 1% in pH 3 buffer, 1 week 25° C./60% RH, may be due to excipient impurities) of the same compound?
**A.** −4.2%^†

**Q.** What about the “Change in CPMM % Purity” value ([1]; Polysorbate 80 1% in pH 3 buffer, 1 week 40° C./75% RH, may be due to excipient impurities) of the same compound?
**A.** −8.3%^†

**Q.** And the “Change in CPMM % Purity” value ([1]; Polysorbate 80 1% in pH 3 buffer, 2 weeks 25° C./60% RH, may be due to excipient impurities)?
**A.** −5.2%^†

**Q.** What about the “Change in CPMM % Purity” value ([1]; Polysorbate 80 1% in pH 3 buffer, 2 weeks 40° C./75% RH, may be due to excipient impurities) of the same compound?
**A.** −15.0%^†

**Q.** And the “CPMM % Purity” value ([1]; Polysorbate 80 1% in pH 3 buffer)?
**A.** 99.4%

**Q.** What about the “Change in CPMM % Purity” value ([1]; Propylene Glycol 10% in pH 3 buffer, 1 week 25° C./60% RH) of the same compound?
**A.** −1.2%

**Q.** And the “Change in CPMM % Purity” value ([1]; Propylene Glycol 10% in pH 3 buffer, 1 week 40° C./75% RH)?
**A.** −4.0%

**Q.** What about the “Change in CPMM % Purity” value ([1]; Propylene Glycol 10% in pH 3 buffer, 2 weeks 25° C./60% RH) of the same compound?
**A.** −1.9%

**Q.** And the “Change in CPMM % Purity” value ([1]; Propylene Glycol 10% in pH 3 buffer, 2 weeks 40° C./75% RH)?
**A.** −6.9%

**Q.** What about the “CPMM % Purity” value ([1]; Propylene Glycol 10% in pH 3 buffer) of the same compound?
**A.** 99.4%

**Q.** What about the “Change in CPMM % Purity” value ([1]; SBECD 10% in pH 3 buffer, 1 week 25° C./60% RH) of the same compound?
**A.** −0.4%

**Q.** What about the “Change in CPMM % Purity” value ([1]; SBECD 10% in pH 3 buffer, 1 week 40° C./75% RH) of the same compound?
**A.** −1.3%

**Q.** What about the “Change in CPMM % Purity” value ([1]; SBECD 10% in pH 3 buffer, 2 weeks 25° C./60% RH) of the same compound?
**A.** −0.4%

**Q.** What about the “Change in CPMM % Purity” value ([1]; SBECD 10% in pH 3 buffer, 2 weeks 40° C./75% RH) of the same compound?
**A.** −2.1%

**Q.** What about the “CPMM % Purity” value ([1]; SBECD 10% in pH 3 buffer) of the same compound?
**A.** 99.4%

**Q.** What about the “Change in CPMM % Purity” value ([1]; Sodium Bisulfite 0.5% in pH 3 buffer, 1 week 25° C./60% RH) of the same compound?
**A.** −1.9%

**Q.** What about the “Change in CPMM % Purity” value ([1]; Sodium Bisulfite 0.5% in pH 3 buffer, 1 week 40° C./75% RH) of the same compound?
**A.** −7.2%

**Q.** What about the “Change in CPMM % Purity” value ([1]; Sodium Bisulfite 0.5% in pH 3 buffer, 2 weeks 25° C./60% RH) of the same compound?
**A.** −3.2%

**Q.** And the “Change in CPMM % Purity” value ([1]; Sodium Bisulfite 0.5% in pH 3 buffer, 2 weeks 40° C./75% RH)?
**A.** −12.2%

**Q.** What about the “CPMM % Purity” value ([1]; Sodium Bisulfite 0.5% in pH 3 buffer) of the same compound?
**A.** 99.4%

**Q.** What about the “Change in CPMM % Purity” value ([1]; Solutol HS15 1% in pH 3 buffer, 1 week 25° C./60% RH) of the same compound?
**A.** −1.3%

**Q.** What about the “Change in CPMM % Purity” value ([1]; Solutol HS15 1% in pH 3 buffer, 1 week 40° C./75% RH) of the same compound?
**A.** −4.2%

**Q.** What about the “Change in CPMM % Purity” value ([1]; Solutol HS15 1% in pH 3 buffer, 2 weeks 25° C./60% RH) of the same compound?
**A.** −2.1%

**Q.** What about the “Change in CPMM % Purity” value ([1]; Solutol HS15 1% in pH 3 buffer, 2 weeks 40° C./75% RH) of the same compound?
**A.** −7.3%

**Q.** And the “CPMM % Purity” value ([1]; Solutol HS15 1% in pH 3 buffer)?
**A.** 99.4%

**Q.** What about the “Change in CPMM % Purity” value ([1]; Sorbitol 5% in pH 3 buffer, 1 week 25° C./60% RH) of the same compound?
**A.** −1.3%

**Q.** And the “Change in CPMM % Purity” value ([1]; Sorbitol 5% in pH 3 buffer, 1 week 40° C./75% RH)?
**A.** −4.5%

**Q.** What about the “Change in CPMM % Purity” value ([1]; Sorbitol 5% in pH 3 buffer, 2 weeks 25° C./60% RH) of the same compound?
**A.** −2.3%

**Q.** What about the “Change in CPMM % Purity” value ([1]; Sorbitol 5% in pH 3 buffer, 2 weeks 40° C./75% RH) of the same compound?
**A.** −8.3%

**Q.** What about the “CPMM % Purity” value ([1]; Sorbitol 5% in pH 3 buffer) of the same compound?
**A.** 99.5%

**Q.** What about the “Change in CPMM % Purity” value ([1]; Sucrose 5% in pH 3 buffer, 1 week 25° C./60% RH) of the same compound?
**A.** −1.5%

**Q.** What about the “Change in CPMM % Purity” value ([1]; Sucrose 5% in pH 3 buffer, 1 week 40° C./75% RH) of the same compound?
**A.** −5.2%

**Q.** What about the “Change in CPMM % Purity” value ([1]; Sucrose 5% in pH 3 buffer, 2 weeks 25° C./60% RH) of the same compound?
**A.** −2.5%

**Q.** And the “Change in CPMM % Purity” value ([1]; Sucrose 5% in pH 3 buffer, 2 weeks 40° C./75% RH)?
**A.** −9.0%

**Q.** What about the “CPMM % Purity” value ([1]; Sucrose 5% in pH 3 buffer) of the same compound?
**A.** 99.4%

**Q.** What about the “Change in CPMM % Purity” value ([1]; Trehalose 5% in pH 3 buffer, 1 week 25° C./60% RH) of the same compound?
**A.** −1.3%

**Q.** What about the “Change in CPMM % Purity” value ([1]; Trehalose 5% in pH 3 buffer, 1 week 40° C./75% RH) of the same compound?
**A.** −4.6%

**Q.** What about the “Change in CPMM % Purity” value ([1]; Trehalose 5% in pH 3 buffer, 2 weeks 25° C./60% RH) of the same compound?
**A.** −2.3%

**Q.** And the “Change in CPMM % Purity” value ([1]; Trehalose 5% in pH 3 buffer, 2 weeks 40° C./75% RH)?
**A.** −8.4%

**Q.** And the “CPMM % Purity” value ([1]; Trehalose 5% in pH 3 buffer)?
**A.** 99.4%

**Q.** And the solubility (physchem; 2 °C, pH 6.02, aqueous with cosolvent or surfactant or cyclodextrin, 10% SBECD in 25 mM Citrate, 2-8° C./ambient RH, pH 6.02, read-out: CPMM Amount (maximum solubility))?
**A.** 5590 µg/mL (≈ 17.8 mM)

**Q.** What about the solubility (physchem; 2 °C, pH 6.05, aqueous with cosolvent or surfactant or cyclodextrin, 10% SBECD in 10 mM Citrate, 2-8° C./ambient RH, pH 6.05, read-out: CPMM Amount (maximum solubility)) of the same compound?
**A.** 5480 µg/mL (≈ 17.4 mM)

**Q.** What about the solubility (physchem; pH 5.96, aqueous buffer, 10 mM Citrate, RT/Ambient RH, pH 5.96, read-out: CPMM Amount (maximum solubility)) of the same compound?
**A.** 300 µg/mL (≈ 0.954 mM)

**Q.** What about the solubility (physchem; pH 5.98, aqueous buffer, 50 mM Citrate, RT/Ambient RH, pH 5.98, read-out: CPMM Amount (maximum solubility)) of the same compound?
**A.** 230 µg/mL (≈ 0.732 mM)

**Q.** What about the solubility (physchem; pH 5.98, aqueous with cosolvent or surfactant or cyclodextrin, 10% SBECD in 10 mM Citrate, RT/Ambient RH, pH 5.98, read-out: CPMM Amount (maximum solubility)) of the same compound?
**A.** 5470 µg/mL (≈ 17.4 mM)

**Q.** And the solubility (physchem; pH 5.98, aqueous with cosolvent or surfactant or cyclodextrin, 10% SBECD in 25 mM Citrate, RT/Ambient RH, pH 5.98, read-out: CPMM Amount (maximum solubility))?
**A.** 5490 µg/mL (≈ 17.5 mM)

**Q.** And the solubility (physchem; pH 5.99, aqueous with cosolvent or surfactant or cyclodextrin, 10% SBECD in 50 mM Citrate, RT/Ambient RH, pH 5.99, read-out: CPMM Amount (maximum solubility))?
**A.** 5680 µg/mL (≈ 18.1 mM)

**Q.** And the solubility (physchem; pH 6, aqueous buffer, 25 mM Citrate, RT/Ambient RH, pH 6.00, read-out: CPMM Amount (maximum solubility))?
**A.** 280 µg/mL (≈ 0.891 mM)

**Q.** What about the solubility (physchem; pH 6, aqueous buffer, citrate solutions containing no SBECD, read-out: solubility) of the same compound?
**A.** ~300 µg/mL (≈ 0.954 mM)

**Q.** What about the solubility (physchem; pH 6, aqueous with cosolvent or surfactant or cyclodextrin, 10% SBECD solutions at all citrate concentrations, regardless of the condition, read-out: solubility) of the same compound?
**A.** ~5500 µg/mL (≈ 17.5 mM)
